Assay results as given in PubChem BioAssay (NCI).
Values joined by “and” are separate entries in the source; they are usually repeats but may differ in a detail not shown here. Identical values can stand only once.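 Growth conditions: 96-well plates. Treatment: test compound, 48 hours, 5 concentrations. Analysis: linear interpolation between bracketing concentrations; unreached endpoints set to highest concentration. GI50 marks 50% less growth. TGI denotes the concentration required for complete inhibition of growth.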

How the values were obtained:
Experiment in all cases: NCI tumour cell line growth inhibition, 48 h
DLD-1 colon = tested on: DLD-1 colon
SNB-78 CNS = tested on: SNB-78 CNS
DMS 273 small cell lung = tested on: DMS 273 small cell lung
KM20L2 colon = tested on: KM20L2 colon
XF 498 CNS = tested on: XF 498 CNS
LXFL 529 NSCLC = tested on: LXFL 529 NSCLC
HOP-18 NSCLC = tested on: HOP-18 NSCLC
MDA-N = tested on: MDA-N
RXF-631 renal = tested on: RXF-631 renal

O=C1c2cc([N+](=O)[O-])cc3cc([N+](=O)[O-])cc(c23)C(=O)N1CCCNCCNCCCN1C(=O)c2cc([N+](=O)[O-])cc3cc([N+](=O)[O-])cc(c23)C1=O
TGI (DLD-1 colon): 3.24 µM | TGI (SNB-78 CNS): 1.14 µM | TGI (DMS 273 small cell lung): 0.42 µM | TGI (KM20L2 colon): 5.09 µM | TGI (XF 498 CNS): 0.436 µM | TGI (LXFL 529 NSCLC): 0.326 µM | TGI (HOP-18 NSCLC): 5.63 µM

NCCCNCCSSC/C=C\CSSCCNCCCN
TGI (DLD-1 colon): > 100 µM | GI50 (SNB-78 CNS): 55 µM and 24.8 µM | TGI (SNB-78 CNS): > 100 µM | TGI (DMS 273 small cell lung): > 100 µM | GI50 (KM20L2 colon): > 100 µM and 38.9 µM | TGI (KM20L2 colon): > 100 µM | TGI (XF 498 CNS): > 100 µM | TGI (LXFL 529 NSCLC): > 100 µM and 88.4 µM | TGI (HOP-18 NSCLC): > 100 µM

Brc1ccccc1C=NC12CC3CC(CC(C3)C1)C2
TGI (DLD-1 colon): > 100 µM | TGI (SNB-78 CNS): > 100 µM | TGI (MDA-N): > 73.8 µM | TGI (DMS 273 small cell lung): > 100 µM | TGI (KM20L2 colon): > 100 µM | TGI (XF 498 CNS): > 100 µM | TGI (LXFL 529 NSCLC): > 100 µM | TGI (HOP-18 NSCLC): > 100 µM | TGI (RXF-631 renal): > 100 µM

CCOC(=O)NC(=O)c1cn(CCCOC(=O)NCCCCCCNC(=O)OCCCn2cc(C(=O)NC(=O)OCC)c(=O)[nH]c2=O)c(=O)[nH]c1=O
TGI (DLD-1 colon): > 100 µM | TGI (SNB-78 CNS): > 100 µM | TGI (DMS 273 small cell lung): > 100 µM | TGI (KM20L2 colon): > 100 µM | TGI (LXFL 529 NSCLC): > 100 µM | TGI (HOP-18 NSCLC): > 100 µM

COc1ccc(-c2cc(-c3cc(C)ccc3O)[nH]c(=O)n2)cc1
TGI (DLD-1 colon): > 100 µM | TGI (SNB-78 CNS): > 100 µM | TGI (DMS 273 small cell lung): > 100 µM | TGI (KM20L2 colon): > 100 µM | TGI (LXFL 529 NSCLC): > 100 µM | TGI (HOP-18 NSCLC): > 100 µM | TGI (RXF-631 renal): > 100 µM

CC1=NC(C(C)C)C(=O)O1 (stereo not drawn)
TGI (DLD-1 colon): > 100 µM | TGI (SNB-78 CNS): > 100 µM | TGI (DMS 273 small cell lung): > 100 µM | TGI (KM20L2 colon): > 100 µM | TGI (XF 498 CNS): > 100 µM | TGI (LXFL 529 NSCLC): > 100 µM | TGI (HOP-18 NSCLC): > 100 µM | TGI (RXF-631 renal): > 100 µM

COC1OC(COS(=O)(=O)c2ccc(C)cc2)C(O)C(OS(=O)(=O)c2ccc(C)cc2)C1OS(=O)(=O)c1ccc(C)cc1 (stereo not drawn)
TGI (DLD-1 colon): > 100 µM | TGI (SNB-78 CNS): > 100 µM | TGI (DMS 273 small cell lung): > 100 µM | TGI (KM20L2 colon): > 100 µM | TGI (LXFL 529 NSCLC): > 100 µM | TGI (HOP-18 NSCLC): > 100 µM | TGI (RXF-631 renal): > 100 µM

CNC(=O)NC(CCCCNC(=O)OCc1ccccc1)C(=O)OCc1ccccc1 (stereo not drawn)
TGI (DLD-1 colon): > 100 µM | TGI (SNB-78 CNS): > 91.7 µM | TGI (MDA-N): 44 µM | TGI (DMS 273 small cell lung): > 100 µM | TGI (KM20L2 colon): > 100 µM | TGI (XF 498 CNS): 31.8 µM | TGI (LXFL 529 NSCLC): > 100 µM

COC(=O)C1=C(CS(=O)c2ccc([N+](=O)[O-])cc2[N+](=O)[O-])ON(C)C1c1ccccc1 (stereo not drawn)
TGI (DLD-1 colon): > 100 µM | TGI (SNB-78 CNS): > 96.5 µM | TGI (DMS 273 small cell lung): > 80.6 µM | TGI (KM20L2 colon): > 72.6 µM | TGI (XF 498 CNS): > 100 µM | TGI (LXFL 529 NSCLC): > 92.8 µM | TGI (HOP-18 NSCLC): > 89.7 µM | TGI (RXF-631 renal): > 100 µM
